US20060135587A1, “Method and compounds for promoting healing and reducing inflammation” (priority 2002, published 2006)
Read-outs that look alike come from different tables or passages of the source.

Legend:
[1] = system: carrageenin-induced inflammation; test: Carrageenin-induced inflammation in intact and adrenalectomized rats; format: in vivo
Procedure: An acute inflammatory oedema was induced in intact and adrenalectomized male rats weighing 180-200 g by sub-plantar injection of 0.1 ml of 1% carrageenin solution into the left paw (Winter et al., 1962). The same volume of saline solution was injected into the contralateral paw. […] There were 10 rats in each group.
The degree of carrageenin-induced inflammation of the ankle joints was assessed at 3 hours after the induction of the inflammation, on the basis of the change in weight of the experimental and control paws (reaction index).

[2] = system: full-thickness skin wounds; test: Morphological assessment of the wound healing stages; format: in vivo, rats; conditions: Day 15
Description: An important indicator of wound healing is the morphology and epithelialization of the wound surface (Sarkisov et al, 1981). Samples were taken from experimental animals on the fifth, tenth and fifteenth days of the study described in Example 13, which roughly correspond to the three wound healing stages: the first traumatic inflammation stage is complete by the fifth day, the granulation tissue development stage is complete by the tenth day, and cicatrisation and epithelialization take place from the fifteenth to twentieth days. The results are illustrated in FIG. 1.
A comparative assessment of the healing of a full-thickness wound was performed on the basis of a set of morphological indicators characterising the regeneration process: […]

[3] = system: cryogenic injuries of the sigmoid colon; test: Cryogenic damage of the colon, model of ulcerative colitis; format: in vivo, rats; conditions: day 7
Procedure: A model of cryogenic damage of the colon was used in this experiment to simulate ulcerative colitis. Cryogenic injuries of the sigmoid colon of rats were induced by pressing a metal rod of […] in diameter cooled in liquid nitrogen to the serous membrane of the colon for 10 seconds under ether anaesthesia.
Tests were performed on 67 male rats weighing 180-200 g, with 8 animals in each group. Animals were kept in separate cages, with normal food and water ad libitum. The test compounds were administered orally on the second day after the operation, and then daily until healing was complete. Compound 2 or Compound 6 was administered to test animals at a dose of 20-50 mg/kg. The following agents were used for comparison:
The nature of the healing of the ulcer injury was examined morphologically on days 1, 3 and 7. […] The inflammatory process extends beyond the injured area into the adjacent areas, and beyond the peritoneum into fatty connective tissue.

[4] = system: neurogenic dystrophy of the myocardium; test: Myocardial infarction model (electrostimulation of aortic arch), creatine phosphate in rat myocardium; format: in vivo, rats
Description: (§1) The effect of Compound 2 on myocardial tissue in an experimental model of myocardial infarction was examined. In this model system neurogenic dystrophy of the myocardium was induced in rats or rabbits by electrical stimulation of the reflexogenic zone of the aortic arch by implanted electrodes for a period of three hours. […] These changes are accompanied by changes in biochemical indicators such as creatine phosphate, cAMP, and calcium ion concentrations, and changes in the activity of redox enzymes such as succinate dehydrogenase, lactate dehydrogenase, and glucose-6-phosphate dehydrogenase. At a later stage organic lesions of the myocardium such as necrotic and fibrosclerotic foci can be observed.
(§2) The effect of Compound 2 given intraperitoneally or orally on these indicators was examined in rats and rabbits following electrostimulation as described above. The effects on levels of creatine phosphate in rat myocardial are shown in Table 19, and the effects on adenosine triphosphatase (ATPase), succinate dehydrogenase and glucose-6-phosphate dehydrogenase rabbit myocardium are shown in Table 20. The effects on cAMP and Ca^++ levels in rabbit myocardial tissue are shown in FIG. 5, and effects on creatine kinase in rabbit myocardium and blood and the levels of creatine phosphate in myocardium are shown in FIG. 6.

[5] = system: neurogenic dystrophy of the myocardium; test: Myocardial infarction model (electrostimulation), enzymes in rabbit myocardium; format: in vivo, rabbits; conditions: 10 mg/kg; 48 hours after electrostimulation
Description: as §1, §2

[6] = system: liver after partial hepatectomy; test: Morphological study of the liver after partial hepatectomy; format: in vivo, rats; conditions: one week after hepatectomy
Procedure: Morphological methods are highly informative in the assessment of repair processes. Histological tests of the liver after partial hepatectomy were performed using generally accepted methods. Microscopic sections were stained with hematoxylin and eosin using Van Gieson's methodology. Liver tests after partial hepatectomy were performed on 8 groups of animals, totalling 37 rats. All animals were examined one week after hepatectomy.

[7] = system: chronic active viral hepatitis; test: Clinical study in chronic active viral hepatitis; format: in vivo, human; conditions: 600 mg a day orally
Procedure: 45 patients aged between 18 and 32 years old with chronic active viral hepatitis were divided into 4 groups and kept under observation. All patients had received conventional therapy, usually potassium orotate, riboxin and interferon prior to commencement of the trial.
The first group (10 patients) received conventional therapy for 20 days. Assessment of clinical and biochemical indicators and serology data was carried out repeatedly for 20 days after the beginning of treatment.
The second group (10 patients) received both conventional treatment and prednisolone at a dose of […] for 20 days. In this group the clinical-biochemical and serological analysis took place before the treatment, and 10 days and 20 days after the beginning of treatment.
The third group (10 patients) received both conventional treatment and Compound 2 administered orally at a dose of 600 mg a day for 20 days. The control clinical-biochemical and serological analysis was carried out 20 days after the beginning of treatment.
The fourth group (15 patients) received prednisolone either orally or intravenously at a dose of 15 mg a day for 10 days; then prednisolone was stopped and replaced by Compound 2 at a dose of 600 mg a day for 10 days. […]

guinea pigs = test: Acute toxicity (LD50) in guinea pigs; format: in vivo; conditions: oral administration
Description: It is contemplated that in clinical use, treatment using oral tablets will take two to three weeks, with each patient receiving three tablets containing 0.6 g active compound per day.

[8] = Adrenalectomized animals, 50 mg/kg 4 days + carrageenin
[9] = Adrenalectomized animals, 100 mg/kg 4 days + carrageenin
[10] = Intact animals, 100 mg/kg 4 days + carrageenin

Procedure for white male mice: The acute toxicity of 1,3-dialkyl-4,5-bis (N-methylcarbamoyl)imidazolium salts was assessed following intraperitoneal injection into 200 white male mice weighing 18 to 20 g. Dead animals were counted daily after the administration of the test substance.

With `CC[n+]1cn(C)c(C(=O)NC)c1C(=O)NC.O=S(=O)([O-])c1ccccc1` [Compound 2, 1-methyl-3-ethyl-4,5-bis(N-methylcarbamoyl)-imidazolium benzenesulfonate] the “Inhibition of oedema(%)” value [1, 8] was 27.88%, the “Reaction index (%)” value [1, 8] was 31.04 ± 2.49 % and the “Inhibition of oedema(%)” value [1, 9] was 44.43%. For the same compound, the “Reaction index (%)” value [1, 9] was 25.63 ± 2.86 %, the “Inhibition of oedema(%)” value ([1]; Intact animals, 50 mg/kg orally 4 days + carrageenin) was 30.41% and the “Reaction index (%)” value ([1]; Intact animals, 50 mg/kg orally 4 days + carrageenin, 3 hours) was 29.96 ± 2.30 %. The “Inhibition of oedema(%)” value [1, 10] was 47.43%, the “Reaction index (%)” value [1, 10] was 22.63 ± 2.86 % and the “animals showing complete epithelialization of the wound” value [2] was 60%. The “animals showing incomplete epithelialization” value [2] was 40%, the “cases with complete synchronous regeneration” value ([3]; 20 mg/kg orally) was 100% and the “animals with reduction of the wound area” value ([3]; 50 mg/kg) was 67%. For the same compound, the “Level of creatine phosphate (μM/g) in rat myocardium” value (“Level of creatine phosphate (μM/g)” below) ([4]; Oral 10 mg/kg, 3 days after stimulation) was 1.09 ± 0.1 µM/g, the “Level of creatine phosphate (μM/g)” value ([4]; Oral 10 mg/kg, Before stimulation) was 0.80 ± 0.07 µM/g and the “Level of creatine phosphate (μM/g)” value ([4]; intraperitoneal 10 mg/kg, 3 days after stimulation) was 0.95 ± 0.06 µM/g. For the same compound, the “Level of creatine phosphate (μM/g)” value ([4]; intraperitoneal 10 mg/kg, Before stimulation) was 0.92 ± 0.08 µM/g, the “Level of creatine phosphate (μM/g)” value ([4]; intraperitoneal 20 mg/kg, 3 days after stimulation) was 1.07 ± 0.04 µM/g and the “Level of creatine phosphate (μM/g)” value ([4]; intraperitoneal 20 mg/kg, Before stimulation) was 1.04 ± 0.15 µM/g. The “ATPase” value [5] was 0.47 ± 0.13 µM/mg/min, the “Glucose-6-phosphate dehydrogenase (optical density units)” value [5] was 6.2 ± 0.7 optical density units and the “Succinate dehydrogenase (optical density units)” value [5] was 44.2 ± 6.7 optical density units. For the same compound, the “histological findings in the liver” value ([6]; 0.1 MM/kg) was “showed no undesirable effects”, the “histological findings in the liver” value ([6]; 0.2 MM/kg) was “some of the animals demonstrated hepatocyte hypertrophy combined with subacute hepatitis” and the “clinical picture and biochemical indicators” value [7] was “improves the clinical picture and normalizes biochemical indicators”. For the same compound, the LD50 (guinea pigs) was “more than 20000 mg/kg”, the LD50 (white male mice; intraperitoneal injection, white male mice, 14 days observation) was 764 mg/kg and the LD50 (white male mice; mice, given intraperitoneally, text b404) was 1920 mg/kg.
